# PubChem BioAssay AID1919013 (Molecular Pharmacology Branch, DTP, NCI, 2023)
# pIC50: −log10 of the molar value.
# Test system: LG0703-F498-PDC complex spheroid growth
# Experiment: Anticancer human tumor LG0703-F498-PDC patient-derived lung adenocarcinoma cell line growth inhibition [AhR]
# Conditions: for pIC50: curve of first compound; for viability, T/C: stronger effect = lower value
# Summary of the method: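 Spheroids combined tumor cells with HUVEC endothelial cells and human MSCs as stroma. AhR antagonists were paired with standard or investigational drugs, each dosed in half-log steps down from near clinical Cmax, or from 10 microM where Cmax was unknown.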
# [1] = second compound 0.1 µM, first compound 0.000949 µM
# [2] = second compound 0.1 µM, first compound 0.003 µM
# [3] = second compound 0.1 µM, first compound 0.00949 µM
# [4] = second compound 0.1 µM, first compound 0.03 µM
# [5] = second compound 0.1 µM, first compound 0.0949 µM
# [6] = second compound 0.1 µM, first compound 0.3 µM
# [7] = second compound 0.316 µM, first compound 0.000949 µM
# [8] = second compound 0.316 µM, first compound 0.003 µM
# [9] = second compound 0.316 µM, first compound 0.00949 µM
# [10] = second compound 0.316 µM, first compound 0.03 µM
# [11] = second compound 0.316 µM, first compound 0.0949 µM
# [12] = second compound 0.316 µM, first compound 0.3 µM
# [13] = second compound 1 µM, first compound 0.000949 µM
# [14] = second compound 1 µM, first compound 0.003 µM
# [15] = second compound 1 µM, first compound 0.00949 µM
# [16] = second compound 1 µM, first compound 0.03 µM
# [17] = second compound 1 µM, first compound 0.0949 µM
# [18] = second compound 1 µM, first compound 0.3 µM
# [19] = second compound 3.16 µM, first compound 0.000949 µM
# [20] = second compound 3.16 µM, first compound 0.003 µM
# [21] = second compound 3.16 µM, first compound 0.00949 µM
# [22] = second compound 3.16 µM, first compound 0.03 µM
# [23] = second compound 3.16 µM, first compound 0.0949 µM
# [24] = second compound 3.16 µM, first compound 0.3 µM
# [25] = second compound 10 µM, first compound 0.000949 µM
# [26] = second compound 10 µM, first compound 0.003 µM
# [27] = second compound 10 µM, first compound 0.00949 µM
# [28] = second compound 10 µM, first compound 0.03 µM
# [29] = second compound 10 µM, first compound 0.0949 µM
# [30] = second compound 10 µM, first compound 0.3 µM
# [31] = second compound 0.1 µM, first compound 0.0316 µM
# [32] = second compound 0.1 µM, first compound 0.1 µM
# [33] = second compound 0.1 µM, first compound 0.316 µM
# [34] = second compound 0.1 µM, first compound 1 µM
# [35] = second compound 0.1 µM, first compound 3.16 µM
# [36] = second compound 0.1 µM, first compound 10 µM
# [37] = second compound 0.316 µM, first compound 0.0316 µM
# [38] = second compound 0.316 µM, first compound 0.1 µM
# [39] = second compound 0.316 µM, first compound 0.316 µM
# [40] = second compound 0.316 µM, first compound 1 µM
# [41] = second compound 0.316 µM, first compound 3.16 µM
# [42] = second compound 0.316 µM, first compound 10 µM
# [43] = second compound 1 µM, first compound 0.0316 µM
# [44] = second compound 1 µM, first compound 0.1 µM
# [45] = second compound 1 µM, first compound 0.316 µM
# [46] = second compound 1 µM, first compound 1 µM
# [47] = second compound 1 µM, first compound 3.16 µM
# [48] = second compound 1 µM, first compound 10 µM
# [49] = second compound 3.16 µM, first compound 0.0316 µM
# [50] = second compound 3.16 µM, first compound 0.1 µM
# [51] = second compound 3.16 µM, first compound 0.316 µM
# [52] = second compound 3.16 µM, first compound 1 µM
# [53] = second compound 3.16 µM, first compound 3.16 µM
# [54] = second compound 3.16 µM, first compound 10 µM
# [55] = second compound 10 µM, first compound 0.0316 µM
# [56] = second compound 10 µM, first compound 0.1 µM
# [57] = second compound 10 µM, first compound 0.316 µM
# [58] = second compound 10 µM, first compound 1 µM
# [59] = second compound 10 µM, first compound 3.16 µM
# [60] = second compound 10 µM, first compound 10 µM
# 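Note: luminescence taken as a proxy for viable cell amount.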
# 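Throughout, for viability, T/C: percent of DMSO vehicle control where 100% means growth equal to vehicle.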
structure (smiles),measurement,setting,value
CC(C)CC(NC(=O)C(Cc1ccccc1)NC(=O)c1cnccn1)B(O)O (stereo not given) + Cc1ccccc1N=Nc1ccc(NC(=O)c2ccnn2C)c(C)c1,pIC50,second compound 0.1 µM,8.29
same,pIC50,second compound 0.316 µM,8.30
same,pIC50,second compound 1 µM,8.28
same,pIC50,second compound 3.16 µM,8.30
same,pIC50,second compound 10 µM,8.29
same,"viability, T/C",[1],101%
same,"viability, T/C",[2],85.3%
same,"viability, T/C",[3],10%
same,"viability, T/C",[4],0.56%
same,"viability, T/C",[5],0.28%
same,"viability, T/C",[6],0.18%
same,"viability, T/C",[7],95.2%
same,"viability, T/C",[8],80%
same,"viability, T/C",[9],12.3%
same,"viability, T/C",[10],0.81%
same,"viability, T/C",[11],0.11%
same,"viability, T/C",[12],0.12%
same,"viability, T/C",[13],85.1%
same,"viability, T/C",[14],85.8%
same,"viability, T/C",[15],12.8%
same,"viability, T/C",[16],0.76%
same,"viability, T/C",[17],0.13%
same,"viability, T/C",[18],0.17%
same,"viability, T/C",[19],86.9%
same,"viability, T/C",[20],78%
same,"viability, T/C",[21],14.8%
same,"viability, T/C",[22],1.06%
same,"viability, T/C",[23],0.16%
same,"viability, T/C",[24],0.29%
same,"viability, T/C",[25],82%
same,"viability, T/C",[26],81.3%
same,"viability, T/C",[27],13.5%
same,"viability, T/C",[28],1.28%
same,"viability, T/C",[29],0.3%
same,"viability, T/C",[30],0.39%
CCc1c2c(nc3ccc(O)cc13)-c1cc3c(c(=O)n1C2)COC(=O)[C@]3(O)CC + Cc1ccccc1N=Nc1ccc(NC(=O)c2ccnn2C)c(C)c1,pIC50,second compound 0.1 µM,7.31
same,pIC50,second compound 0.316 µM,7.36
same,pIC50,second compound 1 µM,7.51
same,pIC50,second compound 3.16 µM,7.62
same,pIC50,second compound 10 µM,7.43
same,"viability, T/C",[1],79.1%
same,"viability, T/C",[2],92.9%
same,"viability, T/C",[3],77.1%
same,"viability, T/C",[4],56.8%
same,"viability, T/C",[5],41.5%
same,"viability, T/C",[6],29.2%
same,"viability, T/C",[7],98.5%
same,"viability, T/C",[8],94.6%
same,"viability, T/C",[9],75.8%
same,"viability, T/C",[10],57.9%
same,"viability, T/C",[11],35.6%
same,"viability, T/C",[12],24.9%
same,"viability, T/C",[13],86.5%
same,"viability, T/C",[14],79.7%
same,"viability, T/C",[15],69.2%
same,"viability, T/C",[16],48.4%
same,"viability, T/C",[17],36.3%
same,"viability, T/C",[18],24.5%
same,"viability, T/C",[19],93.9%
same,"viability, T/C",[20],83.3%
same,"viability, T/C",[21],64.3%
same,"viability, T/C",[22],45%
same,"viability, T/C",[23],34.1%
same,"viability, T/C",[24],21.7%
same,"viability, T/C",[25],65.8%
same,"viability, T/C",[26],79%
same,"viability, T/C",[27],69.1%
same,"viability, T/C",[28],51.7%
same,"viability, T/C",[29],35.8%
same,"viability, T/C",[30],24.7%
Nc1ccccc1NC(=O)c1ccc(CNC(=O)OCc2cccnc2)cc1 + Cc1ccccc1N=Nc1ccc(NC(=O)c2ccnn2C)c(C)c1,pIC50,second compound 0.1 µM,5.94
same,pIC50,second compound 0.316 µM,6.05
same,pIC50,second compound 1 µM,5.97
same,pIC50,second compound 3.16 µM,6.03
same,pIC50,second compound 10 µM,5.86
same,"viability, T/C",[31],89.8%
same,"viability, T/C",[32],95.3%
same,"viability, T/C",[33],88.6%
same,"viability, T/C",[34],54%
same,"viability, T/C",[35],13.7%
same,"viability, T/C",[36],1.74%
same,"viability, T/C",[37],103%
same,"viability, T/C",[38],93.3%
same,"viability, T/C",[39],78.7%
same,"viability, T/C",[40],48.4%
same,"viability, T/C",[41],14.3%
same,"viability, T/C",[42],1.58%
same,"viability, T/C",[43],87.8%
same,"viability, T/C",[44],78.3%
same,"viability, T/C",[45],77.3%
same,"viability, T/C",[46],53%
same,"viability, T/C",[47],15.2%
same,"viability, T/C",[48],2.52%
same,"viability, T/C",[49],73.9%
same,"viability, T/C",[50],75.5%
same,"viability, T/C",[51],69.3%
same,"viability, T/C",[52],48%
same,"viability, T/C",[53],20%
same,"viability, T/C",[54],3.32%
same,"viability, T/C",[55],76.8%
same,"viability, T/C",[56],88.6%
same,"viability, T/C",[57],79.4%
same,"viability, T/C",[58],54.3%
same,"viability, T/C",[59],32.1%
same,"viability, T/C",[60],10.9%
O=C(c1cc(Cc2n[nH]c(=O)c3ccccc23)ccc1F)N1CCN(C(=O)C2CC2)CC1 + Cc1ccccc1N=Nc1ccc(NC(=O)c2ccnn2C)c(C)c1,pIC50,second compound 0.1 µM,< 5.00
same,pIC50,second compound 0.316 µM,< 5.00
same,pIC50,second compound 1 µM,< 5.00
same,pIC50,second compound 3.16 µM,< 5.00
same,pIC50,second compound 10 µM,< 5.00
same,"viability, T/C",[31],89.3%
same,"viability, T/C",[32],94.8%
same,"viability, T/C",[33],89.8%
same,"viability, T/C",[34],93.8%
same,"viability, T/C",[35],85.7%
same,"viability, T/C",[36],84.6%
same,"viability, T/C",[37],96.5%
same,"viability, T/C",[38],119%
same,"viability, T/C",[39],95.7%
same,"viability, T/C",[40],102%
same,"viability, T/C",[41],102%
same,"viability, T/C",[42],79.9%
same,"viability, T/C",[43],86.7%
same,"viability, T/C",[44],98%
same,"viability, T/C",[45],88.7%
same,"viability, T/C",[46],94.4%
same,"viability, T/C",[47],90.2%
same,"viability, T/C",[48],82.2%
same,"viability, T/C",[49],82.1%
same,"viability, T/C",[50],97.1%
same,"viability, T/C",[51],83.5%
same,"viability, T/C",[52],86.9%
same,"viability, T/C",[53],83.9%
same,"viability, T/C",[54],73.9%
same,"viability, T/C",[55],85.6%
same,"viability, T/C",[56],93%
same,"viability, T/C",[57],94.5%
same,"viability, T/C",[58],77.8%
same,"viability, T/C",[59],72.3%
same,"viability, T/C",[60],70.5%
